Patent publication US20130030025A1, “USE OF POTASSIUM CHANNEL BLOCKERS TO TREAT CEREBRAL PALSY” (priority 2011, published 2013)
Where “and” joins values, the source holds several entries; their conditions need not be identical. Identical values can stand only once. Entries after “also recorded” stand apart in the source; their conditions may differ.

Experiments:
[1] = typical; (94 ng·mL^−1); cited from earlier work
[2] = system: middle cerebral artery occlusion (MCAO) in rats; assay: Body swing test (% right swing) after MCAO; assay type: in vivo, Sprague Dawley rats
Method: (§1) 4-AP was evaluated for its ability to promote functional sensorimotor improvement following ischemic stroke in rats with stable motor deficits at times remote from their ischemic events. The animal model mimics the conditions in human ischemic stroke and is produced by middle cerebral artery occlusion (MCAO), which results in extensive infarction in cerebral cortex and striatum, including the cortical spinal tract (white matter). In particular, the MCAO model in Sprague Dawley rats that was utilized in the experiments presented below mimics the conditions in human ischemic stroke. In this experiment, Sprague Dawley rats were anesthetized, subjected to a surgery resulting in middle cerebral artery occlusion (MCAO), treated with and without 4-aminopyridine and behavioral assessments were performed as described below. Surgical Procedure: A small focal stroke (infarct) was made on the right side of the surface of the brain (cerebral cortex) by middle cerebral artery occlusion (MCAO). The right side of the head was shaved with electric clippers (patch of approx 3×5 cm between eye and ear). The region was carefully cleaned with septisol. Using aseptic technique, an incision was made midway between the eye and eardrum canal. The temporalis muscle was isolated, bisected, and reflected. A small window of bone was removed via drill and rongeurs (subtemporal craniectomy) to expose the middle cerebral artery (MCA). Care was taken not to remove the zygomatic arch or to transect the facial nerve that would impair the ability of the animal to chew after surgery. […] The MCA was then transected. The temporalis muscle was then repositioned, and the incision was closed subcutaneously with sutures. The skin incision was closed with surgical staples (2-3 required). Throughout the procedure, body temperature was maintained at 37.0°±1° C., using a self-regulating heating pad connected to a rectal thermometer. Dosing: Rats were treated in accordance with the dosing schedule shown in Tables 1A, 1B, and FIG. 2, with each Phase being a two week period of time. A solution of 4-AP was used in this experiment. Dosing was started at 4 weeks after ischemic event. Treatment groups: Dosing was started 4 weeks after pMCAO surgery. During these 4 weeks, weekly behavioral assessments, as defined below, were performed. Two dose levels of 4-AP plus vehicle control were assessed, with treatment starting at 4 weeks after ischemic event. All dosing was via gastric gavage, volume not to exceed 2 mL/kg. Animals were given the first dose and behavioral assessments were performed starting 60 minutes after dosing. Animals then received the second dose that day at the appropriate time and b.i.d (preferably every 12 hours) thereafter for 2 more days (3 total days of dosing, 5 total doses). One hour after the 5th dose, animals were subjected to behavioral assessments as defined below. Following the final behavioral assessment, drug was withdrawn for 10 or 11 days, behavior was re-assessed, and then animals were re-challenged with a cross-over treatment (Phase II of Table 1B) as described in Tables 1A, 1B, followed by the same behavioral testing and dosing regimen. This cross-over was repeated one more time as well (Phase III of Table 1B) (see FIG. 2). Behavioral test details: Behavioral evaluations were done by investigators blinded to treatment assignment. As described above, behavioral assessments were timed exactly with dosing times. Animals were given the first dose, behavioral assessments were performed starting 60 minutes later, and blood was collected 90 minutes after dosing. Animals then received the second dose that day at the appropriate time and b.i.d (preferably every 12 hours) thereafter for 2 more days (3 total days of dosing, 5 total doses). One hour after the 5th dose, animals were subjected to behavioral testing. […]

[3] = system: middle cerebral artery occlusion (MCAO) in rats; assay: Forelimb placing test after MCAO; assay type: in vivo, Sprague Dawley rats; set-up: Forelimb Placing Total Score, Mean: scale not given here; conditions: for Forelimb Placing Total Score, Mean: group mean N=15; for Forelimb Placing Total Score: individual animals, 0=normal, 12=maximally impaired
Method: as §1

Nc1ccncc1 [4-AP, 4-aminopyridine]
plasma concentrations obtained in clinical studies [1]: < 1000 nM | Body Swing Test (% right Swing) ([2]; Group I, D30, individual animals): 33.33% (3×) and 53.33% and 40.00% (2×) and 30.00% and 36.67% (5×) and 43.33% and 26.67% and 46.67% | Body Swing Test (% right Swing), Mean ([2]; Group I, D30, mean of N 15): 37.56% | Body Swing Test (% right Swing) ([2]; Group I, D32, individual animals): 43.33% (2×) and 50.00% (3×) and 53.33% (3×) and 26.67% and 33.33% (3×) and 40.00% (2×) and 30.00% | Body Swing Test (% right Swing), Mean ([2]; Group I, D32, mean of N 15): 42.22% | Body Swing Test (% right Swing) ([2]; Group I, D44, low dose phase (inferred), individual animals): 33.33% (3×) and 56.67% and 43.33% (3×) and 26.67% (2×) and 50.00% and 40.00% (2×) and 46.67% and 30.00% (2×) | Body Swing Test (% right Swing), Mean ([2]; Group I, D44, low dose phase (inferred), mean of N 15): 38.44% | Body Swing Test (% right Swing) ([2]; Group I, D46, individual animals): 36.67% (3×) and 43.33% (4×) and 33.33% (3×) and 30.00% and 53.33% and 20.00% (2×) and 40.00% | Body Swing Test (% right Swing), Mean ([2]; Group I, D46, mean of N 15): 36.44% | Body Swing Test (% right Swing) ([2]; Group II, D30, individual animals): 20.00% and 40.00% and 16.67% and 30.00% and 36.67% and 33.33% (2×) and 23.33% and 53.33% and 26.67% | Body Swing Test (% right Swing), Mean ([2]; Group II, D30, mean of N 15): 32.89% | Body Swing Test (% right Swing) ([2]; Group II, D32, individual animals): 33.33% (5×) and 40.00% and 43.33% (2×) and 30.00% and 46.67% | Body Swing Test (% right Swing), Mean ([2]; Group II, D32, mean of N 15): 37.78% | Body Swing Test (% right Swing) ([2]; Group II, D58, individual animals): 46.67% (3×) and 33.33% (3×) and 26.67% and 40.00% and 43.33% and 50.00% | Body Swing Test (% right Swing), Mean ([2]; Group II, D58, mean of N 15): 40.67% | Body Swing Test (% right Swing) ([2]; Group II, D60, individual animals): 43.33% and 40.00% (2×) and 33.33% (2×) and 46.67% (2×) and 36.67% and 50.00% (2×) | Body Swing Test (% right Swing), Mean ([2]; Group II, D60, mean of N 15): 42.67% | Body Swing Test (% right Swing), Mean ([2]; Group III, D44, high dose phase (inferred), mean of N 15): 39.56% | Body Swing Test (% right Swing), Mean ([2]; Group III, D46, high dose phase (inferred), mean of N 15): 40.44% | Body Swing Test (% right Swing), Mean ([2]; Group III, D58, low dose phase (inferred), mean of N 15): 34.89% | Body Swing Test (% right Swing), Mean ([2]; Group III, D60, low dose phase (inferred), mean of N 15): 35.11% | effect on global body control (body swing test) ([2]; low or high dose, rats after MCAO, reversible and dose-dependent): effective to improve the percentage of rightward over total swings; also recorded: significant improvement | Forelimb Placing Total Score, Mean ([3]; Group I, Phase 1, D30, High 4-AP 2.0 mg/kg b.i.d. p.o., after first dose): 3.37 | Forelimb Placing Total Score, Mean ([3]; Group I, Phase 1, D32, High 4-AP 2.0 mg/kg b.i.d. p.o., after 5th dose): 2.43 | Forelimb Placing Total Score, Mean ([3]; Group I, Phase 2, D44, Low 4-AP 0.63 mg/kg b.i.d. p.o., after first dose): 2.37 | Forelimb Placing Total Score, Mean ([3]; Group I, Phase 2, D46, Low 4-AP 0.63 mg/kg b.i.d. p.o., after 5th dose): 2.03 | Forelimb Placing Total Score, Mean ([3]; Group II, Phase 1, D30, Low 4-AP 0.63 mg/kg b.i.d. p.o., after first dose): 4.20 | Forelimb Placing Total Score, Mean ([3]; Group II, Phase 1, D32, Low 4-AP 0.63 mg/kg b.i.d. p.o., after 5th dose): 3.43 | Forelimb Placing Total Score, Mean ([3]; Group II, Phase 3, D58, High 4-AP 2.0 mg/kg b.i.d. p.o., after first dose): 1.90 | Forelimb Placing Total Score, Mean ([3]; Group II, Phase 3, D60, High 4-AP 2.0 mg/kg b.i.d. p.o., after 5th dose): 1.17 | Forelimb Placing Total Score, Mean ([3]; Group III, Phase 2, D44, High 4-AP 2.0 mg/kg b.i.d. p.o., after first dose): 2.67 | Forelimb Placing Total Score, Mean ([3]; Group III, Phase 2, D46, High 4-AP 2.0 mg/kg b.i.d. p.o., after 5th dose): 1.33 | Forelimb Placing Total Score, Mean ([3]; Group III, Phase 3, D58, Low 4-AP 0.63 mg/kg b.i.d. p.o., after first dose): 2.00 | Forelimb Placing Total Score, Mean ([3]; Group III, Phase 3, D60, Low 4-AP 0.63 mg/kg b.i.d. p.o., after 5th dose): 1.80 | Forelimb Placing Total Score ([3]; Group I, Phase 1, D30 post-MCAO, High 4-AP 2.0 mg/kg b.i.d. p.o., 60 min after first dose): 4.50 (4×) and 3.50 (4×) and 4.00 and 5.50 and 3.00 (2×) and 0.50 and 1.00 and 1.50 | Forelimb Placing Total Score ([3]; Group I, Phase 1, D32, High 4-AP 2.0 mg/kg b.i.d. p.o., 1 h after 5th dose): 3.00 (4×) and 2.00 (3×) and 3.50 (3×) and 2.50 and 0.50 (3×) and 4.00 | Forelimb Placing Total Score ([3]; Group I, Phase 2, D44, Low 4-AP 0.63 mg/kg b.i.d. p.o., 60 min after first dose): 3.50 (2×) and 1.50 (2×) and 4.00 (4×) and 3.00 (2×) and 2.00 and 0.00 (2×) and 0.50 and 1.00 | Forelimb Placing Total Score ([3]; Group I, Phase 2, D46, Low 4-AP 0.63 mg/kg b.i.d. p.o., 1 h after 5th dose): 3.50 (2×) and 1.50 (3×) and 3.00 (3×) and 4.00 and 2.50 (2×) and 0.00 (3×) and 1.00 | Forelimb Placing Total Score ([3]; Group II, Phase 1, D30, Low 4-AP 0.63 mg/kg b.i.d. p.o., 60 min after first dose): 5.50 (3×) and 4.00 (2×) and 3.50 and 5.00 and 4.50 and 1.50 (2×) | Forelimb Placing Total Score ([3]; Group II, Phase 1, D32, Low 4-AP 0.63 mg/kg b.i.d. p.o., 1 h after 5th dose): 5.50 and 2.00 (2×) and 4.00 and 5.00 and 3.50 and 4.50 and 1.00 (2×) and 3.00
